Several values for one entry are separate records, joined by “and”; a condition that tells them apart may be missing. Equal values may be shown once. Entries after “also recorded” stand apart in the source; their conditions may differ. Read-outs that look alike come from different tables or passages of the source.
Key:
[1] = system: peptide-pulsed HHD-transfected RMAS cells; type: in vivo, HHD mice; conditions: for Maximum specific lysis (%): each responder mouse
[2] = system: peptide-pulsed HHD-transfected RMAS cells; type: in vivo, HHD mice
[3] = system: HHD-transfected RMA-S cells loaded with relevant peptide; assay: CTL response of HHD mice injected s.c. with tumor epitopic peptide in IFA (51Cr-release assay); type: in vivo; conditions: for hierarchy of CTL inducers: peptide alone in IFA, by number of responding mice and level of specific lysis; for R/T (responder versus tested mice) / lysis in % (maximal lysis for each responder mouse): peptide s.c. in IFA; for R/T (responder versus tested mice): no helper, responder = at least 10% specific lysis; for lysis in % (maximal lysis for each responder mouse): usually 60:1 E/T ratio
[4] = system: HHD-transfected RMA-S cells loaded with relevant peptide; assay: CTL response of A2A2Kb mice injected s.c. with tumor epitopic peptide in IFA (51Cr-release assay); type: in vivo; conditions: for R/T (responder versus tested mice): responder = at least 10% specific lysis
[5] = system: HHD-transfected RMA-S target cells loaded with relevant peptide; assay: CTL response of HHD mice co-immunized in IFA with tumor peptide and HBVc.128 helper peptide; type: in vivo; conditions: for R/T (responder versus tested mice): 50 μg CD8 peptide + 140 μg HBVc.128 helper in IFA; for CTL response with helper peptide (in words): co-injected with HBVc.128 helper, compared with peptide alone
[6] = system: peptide-loaded HHD-transfected RMA-S cells and HHD-transfected HeLa cells expressing the polyepitope; assay: Melanoma polyepitopic pCMV-B10 DNA immunization of HHD mice, CTL assay; type: in vivo; conditions: pCMV-B10 DNA with 10 melanoma epitopes, FIG. 1C and D
[7] = target: T1, HLA-A2.1 molecules (Homo sapiens, UniProt P04439, D140Y/D185E/D98H/E176V/E277Q/G131W/G231S/I119V/I121R/I166T/I218V/L300P/L318F/N151K/N90K/P208A/P217A/Q86G/Q94H/R138H/R169H/T345S); type: binding
T1 construct: Using TAP-deficient, HLA-A2.1^+ T2 cells, we evaluated these parameters in an immunofluorescence assay; endogenous in cells; host or cells: T2 cells (TAP-deficient, HLA-A2.1+)

[8] = system: HHD-transfected RMAS cells loaded with relevant peptide; assay: CTL response of HHD mice immunized with lipopeptides; type: in vivo; conditions: lipopeptide of the epitope; individual mice 1-6
[9] = system: HHD-transfected RMAS cells loaded with relevant peptide; assay: CTL response of HHD mice immunized with monoepitopic pCMV-B10 DNA; type: in vivo; conditions: pCMV-B10 DNA encoding the epitope; individual mice 1-6
[10] = system: HHD-transfected RMAS cells loaded with relevant peptide; assay: CTL response of HHD mice immunized with peptide-loaded dendritic cells; type: in vivo
[11] = by number of responder mice and strength of responses, peptide in IFA
[12] = without helper peptide, 100 μg peptide s.c. in IFA
[13] = with helper peptide, 50 μg CD8 + 140 μg HBV core T13L in IFA
[14] = wild-type HIV 1 peptides, reference I9V, T2 cells

ESELVNQIIEQ [E11Q]
classification as immunogen ([1]; mouse, in vivo): inefficient | Responder/tested mice ([1]; mouse, in vivo, sc): 0/6 | Responder/tested mice ([2]; mouse, in vivo): 0/6

LLGRNSFEV [p53.264]
hierarchy of CTL inducers [3]: inefficient | R/T (responder versus tested mice) [3]: 0/7 | R/T (responder versus tested mice) [4]: 0/6 | R/T (responder versus tested mice) [5]: 2/3

ITDQVPFSV [gp100.209]
CTL response against the epitope after melanoma polyepitope DNA immunization (in words) [6]: elicited CTL responses depending on mice; also recorded: No specific lysis | hierarchy of CTL inducers [3]: weak | R/T (responder versus tested mice) [3]: 1/6 | lysis in % (maximal lysis for each responder mouse) [3]: (23) % | R/T (responder versus tested mice) [4]: 0/6 | R/T (responder versus tested mice) [5]: 3/6

TLNAWVKVV [T9V]
classification as immunogen [1, 11]: intermediate | Responder/tested mice [1, 12]: 2/6 | Responder/tested mice [2, 13]: 3/5

LLDGTATLRL [gp100.457]
RA (relative affinity) [7]: 1.65 | CTL response against the epitope after melanoma polyepitope DNA immunization (in words) [6]: Significant responses | hierarchy of CTL inducers [3]: inefficient | R/T (responder versus tested mice) [3]: 0/6 | R/T (responder versus tested mice) [4]: 0/6 | R/T (responder versus tested mice) [5]: 5/6 | CTL response with helper peptide (in words) [5]: good CTL responses in a large proportion of mice

AFHHVAREL [A9L, HIV 1 NEF (188-196) CD8 epitopic peptide]
classification as immunogen [1, 11]: inefficient | Responder/tested mice [1, 12]: 0/6 | Responder/tested mice [2, 13]: 0/6

LLWKGEGAV [L9V, HIV 1 POL (956-964) CD8 epitopic peptide]
classification as immunogen [1, 11]: intermediate | Responder/tested mice [1, 12]: 3/6

YMDGTMSQV [Tyrosinase.368-D]
lysis in % (highest specific lysis) [8]: 0% (3×) and 10% and 1% and 4% | RA (relative affinity) [7]: 2.27 | CTL response against the epitope after melanoma polyepitope DNA immunization (in words) [6]: elicited CTL responses depending on mice | hierarchy of CTL inducers [3]: weak | R/T (responder versus tested mice) [3]: 1/6 | lysis in % (maximal lysis for each responder mouse) [3]: (10) % | lysis in % (highest specific lysis) [9]: 57% and 55% and 28% (2×) and 58% and 56% | R/T (responder versus tested mice) [4]: 0/6 | lysis in % (highest specific lysis) ([10]; individual mice 1-6, usually 60/1 E/T): 12% and 20% and 8% and 3% and 7% and 23% | lysis in % after a second in vitro restimulation ([10]; second restimulation with 10% TCGF, individual mice 1-6): (64) %; also recorded: (92) %; also recorded: (71) %; also recorded: (68) %; also recorded: (56) % | R/T (responder versus tested mice) [5]: 2/6

RMPEAAPPV [p53.65, p53 65-73 epitopic peptide]
RA (relative affinity) [7]: 0.91 | hierarchy of CTL inducers [3]: intermediate | R/T (responder versus tested mice) [3]: 4/6 | R/T (responder versus tested mice) [4]: 0/6 | R/T (responder versus tested mice) [5]: 5/6 | CTL response with helper peptide (in words) [5]: stronger responses in a larger proportion of mice

KTWGQYWQV [gp100.154]
CTL response against the epitope after melanoma polyepitope DNA immunization (in words) [6]: Strong responses | hierarchy of CTL inducers [3]: strong | R/T (responder versus tested mice) [3]: 4/6 | R/T (responder versus tested mice) [4]: 5/6 | R/T (responder versus tested mice) [5]: 9/11 | CTL response with helper peptide (in words) [5]: stronger responses in a larger proportion of mice

PLVKLWYQL [P9L, HIV 1 POL (576-584) CD8 epitopic peptide]
classification as immunogen [1, 11]: inefficient | Responder/tested mice [1, 12]: 0/6 | RA (relative affinity) [7, 14]: >100/ND | Responder/tested mice [2, 13]: 0/6

FLWGPRALV [MAGE-3.271]
CTL response against the epitope after melanoma polyepitope DNA immunization (in words) [6]: No specific lysis | hierarchy of CTL inducers [3]: weak | R/T (responder versus tested mice) [3]: 1/6 | lysis in % (maximal lysis for each responder mouse) [3]: (33) % | R/T (responder versus tested mice) [4]: 0/6 | R/T (responder versus tested mice) [5]: 6/6 | CTL response with helper peptide (in words) [5]: good CTL responses in a large proportion of mice

IISAVVGIL [Her2/neu.654, Her2/neu 654-662 epitopic peptide]
hierarchy of CTL inducers [3]: weak | R/T (responder versus tested mice) [3]: 1/6 | lysis in % (maximal lysis for each responder mouse) [3]: (42) % | R/T (responder versus tested mice) [4]: 0/6 | R/T (responder versus tested mice) [5]: 0/6

PLTFGWCFKL [P10L, HIV 1 NEF (134-143) CD8 epitopic peptide]
classification as immunogen [1, 11]: inefficient | Responder/tested mice [1, 12]: 0/6 | RA (relative affinity) [7, 14]: >100/ND | Responder/tested mice [2, 13]: 0/6

VIYQYMDDL [V9L, HIV 1 POL (334-342) CD8 epitopic peptide]
classification as immunogen [1, 11]: intermediate | Responder/tested mice [1, 12]: 1/6 | Maximum specific lysis (%) ([1]; without helper peptide): 34% | Responder/tested mice [2, 13]: 1/6 | Maximal specific lysis (%) ([2]; with helper peptide, each responder mouse): 57%

RLRDLLLIV [R9V, HIV 1 ENV gp41 (260-268) CD8 epitopic peptide]
classification as immunogen [1, 11]: intermediate | Responder/tested mice [1, 12]: 1/6 | Maximum specific lysis (%) ([1]; without helper peptide): 14% | RA (relative affinity) [7]: >100/ND | Responder/tested mice [2, 13]: 0/6

TLGIVCPI [HPV E7.86, HPV16 E7 86-93 epitopic peptide]
hierarchy of CTL inducers [3]: inefficient | R/T (responder versus tested mice) [3]: 0/6 | R/T (responder versus tested mice) [4]: 2/6 | R/T (responder versus tested mice) [5]: 2/6

VLYRYGSFSV [gp100.476, gp100 476-485 human melanoma epitopic peptide]
RA (relative affinity) [7]: 10 | CTL response against the epitope after melanoma polyepitope DNA immunization (in words) [6]: did not elicit CTL responses | hierarchy of CTL inducers [3]: weak | R/T (responder versus tested mice) [3]: 2/6 | R/T (responder versus tested mice) [4]: 1/6 | lysis in % (maximal lysis for each responder mouse) ([4]; usually 60:1 E/T ratio): (29) % | R/T (responder versus tested mice) [5]: 6/7

STPPPGTRV [p53.149, p53 149-157 epitopic peptide]
hierarchy of CTL inducers [3]: inefficient | R/T (responder versus tested mice) [3]: 0/6 | R/T (responder versus tested mice) [4]: 0/6 | R/T (responder versus tested mice) [5]: 3/6

ILTVILGVL [Melan-A/MART-1.32, Melan-A/MART-1 32-40 epitopic peptide]
RA (relative affinity) [7]: 21.1 | CTL response against the epitope after melanoma polyepitope DNA immunization (in words) [6]: did not elicit CTL responses; also recorded: No specific lysis | hierarchy of CTL inducers [3]: inefficient | R/T (responder versus tested mice) [3]: 0/6 | R/T (responder versus tested mice) [4]: 0/6 | R/T (responder versus tested mice) [5]: 1/6 | lysis in % ([5]; co-injected with HBVc.128 helper peptide in IFA, each responder mouse): (10) %

MLLAVLYCL [Tyrosinase.1, Tyrosinase 1-9 epitopic peptide]
RA (relative affinity) [7]: >60 | CTL response against the epitope after melanoma polyepitope DNA immunization (in words) [6]: did not elicit CTL responses; also recorded: No specific lysis | hierarchy of CTL inducers [3]: inefficient | R/T (responder versus tested mice) [3]: 0/10 | R/T (responder versus tested mice) [4]: 0/6 | R/T (responder versus tested mice) [5]: 5/6 | CTL response with helper peptide (in words) [5]: good CTL responses in a large proportion of mice

ILKEPVHGV [I9V]
classification as immunogen [1, 11]: strong | Responder/tested mice [1, 12]: 4/6 | Responder/tested mice [2, 13]: 5/6

Source: patent US20020164721A1, “Design of a polyepitopic construct for the induction of HLA-A2.1 restricted HIV 1 specific CTL responses using HHD mice” (priority 1999, published 2002)
